Activity calls are given as the source filed them. The rule behind the calls is not given here.
Assays:
[1] = molecular target: T1, WD repeat-containing protein 91 (Homo sapiens, UniProt A4D1P6); assay: (§1) Binding affinity to C-terminal His6-tagged truncated WDR91 (unknown origin) (P392 to A747 residues) expressed in baculovirus-infected Sf9 cells assessed as dissociation constant incubated for 72 to 96 hrs by SPR analysis
T1 sequence (A4D1P6 whole entry): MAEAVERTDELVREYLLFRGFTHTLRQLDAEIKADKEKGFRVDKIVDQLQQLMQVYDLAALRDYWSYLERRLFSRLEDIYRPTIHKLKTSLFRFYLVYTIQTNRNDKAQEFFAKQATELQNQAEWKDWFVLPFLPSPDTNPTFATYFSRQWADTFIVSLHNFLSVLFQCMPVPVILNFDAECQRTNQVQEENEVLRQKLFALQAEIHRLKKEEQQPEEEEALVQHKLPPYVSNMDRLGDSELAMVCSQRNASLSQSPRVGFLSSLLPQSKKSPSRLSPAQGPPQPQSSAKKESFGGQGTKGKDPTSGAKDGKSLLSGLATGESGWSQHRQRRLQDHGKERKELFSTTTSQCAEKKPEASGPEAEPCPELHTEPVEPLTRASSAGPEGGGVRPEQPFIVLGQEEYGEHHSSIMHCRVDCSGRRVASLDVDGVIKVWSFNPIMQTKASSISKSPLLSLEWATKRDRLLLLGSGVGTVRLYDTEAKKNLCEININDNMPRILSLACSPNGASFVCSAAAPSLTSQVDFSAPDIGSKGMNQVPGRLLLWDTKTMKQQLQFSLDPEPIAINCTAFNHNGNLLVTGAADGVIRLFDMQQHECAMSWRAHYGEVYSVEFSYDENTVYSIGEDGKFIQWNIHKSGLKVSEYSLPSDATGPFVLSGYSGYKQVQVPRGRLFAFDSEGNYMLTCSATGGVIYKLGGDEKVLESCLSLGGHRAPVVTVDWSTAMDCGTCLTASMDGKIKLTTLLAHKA

[2] = molecular target: T2, WD repeat-containing protein 91 (Homo sapiens) (UniProt A4D1P6); assay: Binding affinity to C-terminal His6-tagged truncated WDR91 (unknown origin) (P392 to A747 residues) expressed in baculovirus-infected Sf9 cells assessed as covalent adduct formation incubated for 2 hrs by LC-MS analysis
T2 sequence (whole entry): T1 sequence (A4D1P6 whole entry)

[3] = molecular target: T2, WD repeat-containing protein 91 (Homo sapiens); assay: Binding affinity to C-terminal His6-tagged truncated WDR91 (unknown origin) (P392 to A747 residues) expressed in baculovirus-infected Sf9 cells assessed as maximum response incubated for 2 hrs relative to control
[4] = molecular target: T2, WD repeat-containing protein 91 (Homo sapiens); assay: Binding affinity to C-terminal His6-tagged truncated WDR91 (unknown origin) (P392 to A747 residues) expressed in baculovirus-infected Sf9 cells assessed as thermal stabilization by measuring change in melting temperature incubated for 2 hrs by differential scanning fluorimetry analysis
[5] = molecular target: T2, WD repeat-containing protein 91 (Homo sapiens); assay: as §1; details: time 72-96 hrs

Structure (SMILES)	Kd [1]	further results
Nc1ncnc2ccc(C(=O)NC3(c4ccc(Cl)cc4)COC3)cc12	42 µM	–
NC(=O)C1CCCN(c2ccc(C(=O)NC(c3ccc(Cl)cc3)C3CC3)cc2)C1 (stereo not drawn)	37 µM	–
CC(=O)NCc1ccc(C(=O)NC2(c3ccc(Cl)cc3)COC2)cc1	97 µM	–
C=CC(=O)Nc1ccc(CC(=O)NC2(c3ccccc3)COC2)cc1	–	Activity [5]: inactive; Activity [2]: inactive; Rmax [3]: inactive
C=CC(=O)N1CCCc2c(C(=O)NC(c3ccc(Cl)cc3)C3CC3)cccc21 (stereo not drawn)	43 µM	Activity [2]: Active; Rmax [3]: 54%; ΔTm [4]: 4 °C
C=CC(=O)N1CCCc2c(C(=O)NC(c3ccc(F)cc3)C3CCCCC3)cccc21 (stereo not drawn)	–	Activity [5]: inactive; Activity [2]: inactive; Rmax [3]: inactive
O=C(NC(CCO)c1ccc(Cl)cc1)c1ccc(CN2CCCC2=O)cc1 (stereo not drawn)	99 µM	–

Second part, led by results:

Kd [1]	Structure (SMILES)	further results
15 µM	O=C(NC(CCO)c1ccc(Cl)cc1)c1ccc(N2CCC(O)C2)cc1 (stereo not drawn)	–
36 µM	C=CC(=O)N1CCCc2c(C(=O)NC3(c4ccc(Cl)cc4)COC3)cccc21	Activity [2]: Active; Rmax [3]: 53%; ΔTm [4]: 4 °C
6 µM	O=C(NC1(c2ccc(Cl)cc2)COC1)c1ccc(N2CCC(O)CC2)cc1	–
11 µM	O=C(NC1(c2ccc(Cl)cc2)COC1)c1ccc(CN2CCCC2=O)cc1	–
16 µM	O=C(c1ccc(N2CCC(O)C2)cc1)N1CC(O)(c2ccc(Cl)cc2)C1 (stereo not drawn)	–
8 µM	O=C(NC1(c2ccc(Cl)cc2)COC1)c1ccc(-c2cc[nH]n2)s1	–
14 µM	O=C(NC1(c2ccc(Cl)cc2)COC1)c1ccc2snnc2c1	–
14 µM	NC(=O)C1CCCN(c2ccc(C(=O)NC(CCO)c3ccc(Cl)cc3)cc2)C1 (stereo not drawn)	–
20 µM	O=C(NC1(c2ccc(Cl)cc2)COC1)c1ccc(C2(O)COC2)cc1	–
22 µM	O=C1Cc2c(cccc2C(=O)NC2(c3ccc(Cl)cc3)COC2)N1	–
11 µM	Cc1cn2cc(C(=O)NC3(c4ccc(Cl)cc4)COC3)sc2n1	–

From ChEMBL document CHEMBL5375963, “Discovery of a First-in-Class Small-Molecule Ligand for WDR91 Using DNA-Encoded Chemical Library Selection Followed by Machine Learning” (J Med Chem, 2023)
